From patent US20170296550A1, “ARYL SULTAM DERIVATIVES AS RORc MODULATORS” (Genentech, Inc., priority 2013, published 2017)

Target: T1, RORc (Homo sapiens, UniProt P51449)
T1 construct: host or cells: E. coli
T1 sequence (P51449 269-508 limits assumed): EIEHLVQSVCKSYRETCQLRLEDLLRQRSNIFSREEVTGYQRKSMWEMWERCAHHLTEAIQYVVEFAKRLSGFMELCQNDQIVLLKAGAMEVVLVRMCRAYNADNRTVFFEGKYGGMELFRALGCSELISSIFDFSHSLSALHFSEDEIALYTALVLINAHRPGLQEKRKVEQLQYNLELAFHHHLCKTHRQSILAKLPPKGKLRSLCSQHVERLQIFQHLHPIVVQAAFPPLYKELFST
Experiment: In Vitro RORc Ligand Binding Assay (25-[3H]hydroxycholesterol radioligand, filter plate)
Conditions: RORc ligand binding domain 0.6 ug/mL; 6 nM 25-[3H]hydroxycholesterol; 3 h at 25° C.
Protocol: Example 68 In Vitro RORc Ligand Binding Assay
This assay was used to determine a compound's potency in inhibiting activity of RORc by determining, Kiapp, IC50, or percent inhibition values.
On day of the assay, 100 uL of 0.05% CHAPS (in deionized H2O) was added to all wells of the GFB Unifilter plate and allowed soak for 1 h. A wash buffer of 50 mM HEPES (pH 7.4), 150 mM NaCl, and 5 mM MgCl2 was prepared to wash the filter plate. To prepare an assay buffer, BSA was added to the wash buffer to reach 0.01% and DTT was added to reach 1 mM.
For IC50 mode, 10 mM compound stocks were serially diluted in DMSO with DMSO to give 20× required final concentration in DMSO (15 uL compound+30 uL DMSO). The 20× compound stocks were diluted in DMSO with Assay Buffer 4-fold to reach 5× the final test concentration in 25% DMSO (10 uL compound+30 uL Assay Buffer). Solutions were mixed by aspiration several times with a pipette set on 50 uL volume. For the assay, 10 uL of 5× compound stock solutions in 25% DMSO were added to the assay plate in duplicate.
For two point screening, 10 mM stock compound solutions were diluted in DMSO to obtain 200 uM (20× the high test concentration) and then diluted 10-fold further to reach 20 uM (20× the low test concentration). The 20× stocks were diluted 4-fold with Assay Buffer (10 uL compound+30 uL Assay Buffer) to reach 5× the test concentrations (50 uM and 5 uM) and 10 uL were added to two assay plates for the duplicate wells. With each concentration tested on 2 plates, each set of 80 compounds used 4 assay plates (1 uM and 10 uM, with n=2).
25-hydroxycholesterol (1 uM) was used to determine the level of NSB signal is prepared in DMSO as for compounds above, then diluted in Assay Buffer to give a final concentration of 5 uM. For 25-hydroxycholesterol in 25% DMSO/75% Assay Buffer; 10 uL per well was used for NSB samples. Wells for Total Binding and No Receptor sample determination contained 10 uL of 25% DMSO/75% Assay Buffer per well.
Radioligand (25-[^3H]hydroxycholesterol) Preparation
25-[^3H]hydroxycholesterol was dilute in Assay Buffer to obtain 15 nM and vortex to mix. Add 20 uL to all wells to reach 6 nM final in the assay.
Stock receptor solution was diluted in assay buffer to obtain 1.5 ug/mL in Assay Buffer. 20 uL was added to all wells. For No R samples, 20 uL Assay Buffer was substituted for receptor solution.
Assay plates were 96-well polypropylene V-bottom plates. 10 uL of 5× compound in 25% DMSO/75% Assay Buffer was added to Test wells. 10 uL of 25% DMSO/75% Assay Buffer was added to Total Binding or No Receptor wells. 10 uL of 5 uM 25-hydroxycholesterol in 25% DMSO/75% Assay Buffer was added to NSB wells. 20 uL of 15 nM 25-[^3H]hydroxycholesterol prepared in Assay Buffer was added to all wells. 20 uL of 1.5 ug/mL RORc receptor was added to wells (or […] Assay Buffer to No R wells). Following addition to the wells, the plates were incubated 3 h at 25° C.
Using a Packard Filtermate Harvester, the filter plate were washed 4 times following transfer of the incubated samples. Plates were dry-filtered completely (2 h at 50° C. or overnight at room temperature). 50 uL Microscint 0 was added to all wells and read on Topcount protocol Inverted.
Final concentrations were as follows: 50 mM HEPES buffer (pH 7.4); 150 mM NaCl; 1 mM DTT; 5 mM MgCl2; 0.01% BSA; 5% DMSO; 0.6 ug/mL RORc receptor; 6 nM 25-[^3H]hydroxycholesterol. For NSB wells, 1 uM 25-hydroxycholesterol was also present.

Structure (SMILES) | IC50 [nM]
C[C@H]1CCC(c2ccccc2)S(=O)(=O)N1Cc1ccc(-c2cccc(S(C)(=O)=O)c2)cc1F (stereo partly drawn) [Example 23, (3S)-2-(3-Fluoro-3′-methanesulfonyl-biphenyl-4-ylmethyl)-3-methyl-6-phenyl-[1,2]thiazinane 1,1-dioxide] | 212
C[C@H]1CCC(c2ccccc2)S(=O)(=O)N1Cc1ccc(-c2ccc(C#N)nc2)cc1F (stereo partly drawn) [Example 24, 5-[3-Fluoro-4-((3S)-3-methyl-1,1-dioxo-6-phenyl-[1,2]thiazinan-2-ylmethyl)-phenyl]-pyridine-2-carbonitrilc] | 110
CC(=O)Nc1ccc(-c2ccc(CN3[C@@H](C)CCC(c4ccccc4)S3(=O)=O)c(F)c2)cn1 (stereo partly drawn) [Example 26, N-{5-[3-Fluoro-4-((3S)-3-methyl-1,1-dioxo-6-phenyl-[1,2]thiazinan-2-ylmethyl)-phcnyl]-pyridin-2-yl}-acetamide] | 1910
C[C@H]1CCC(c2ccccc2)S(=O)(=O)N1Cc1ccc(-c2ccc(C#N)cc2)cc1F (stereo partly drawn) [Example 27, 3′-Fluoro-4′-((3S)-3-methyl-1,1-dioxo-6-phenyl-[1,2]thiazinan-2-ylmethyl)-biphenyl-4-carbonitrile] | 102
C[C@H]1CCC(c2ccccc2)S(=O)(=O)N1Cc1ccc(-c2ccc(C(N)=O)cc2)cc1F (stereo partly drawn) [Example 28, 3′-Fluoro-4′-((3S)-3-methyl-1,1-dioxo-6-phenyl-[1,2]thiazinan-2-ylmethyl)-biphenyl-4-carboxylic acid amide] | 37
C[C@H]1CCC(c2ccccc2)S(=O)(=O)N1Cc1ccc(-c2cnn(C)c2)cc1F (stereo partly drawn) [Example 29, (3S)-2-[2-Fluoro-4-(1-methyl-1H-pyrazol-4-yl)-benzyl]-3-methyl-6-phenyl-[1,2]thiazinane 1,1-dioxide] | 727
C[C@H]1CCC(c2ccccc2)S(=O)(=O)N1Cc1ccc(-c2ccc(S(C)(=O)=O)cc2)cc1F (stereo partly drawn) [Example 31, (3S)-2-(3-Fluoro-4′-methanesulfonyl-biphenyl-4-ylmethyl)-3-methyl-6-phenyl-[1,2]thiazinane 1,1-dioxide] | 28
C[C@H]1CCC(c2ccccc2)S(=O)(=O)N1Cc1ccc(-c2ccccc2)cc1F (stereo partly drawn) [Example 32, (3S)-2-(3-Fluoro-biphenyl-4-ylmethyl)-3-methyl-6-phenyl-[1,2]thiazinane 1,1-dioxide] | 161
C[C@H]1CCC(c2ccccc2)S(=O)(=O)N1Cc1ccc(-c2ccc(NS(C)(=O)=O)cc2)cc1F (stereo partly drawn) [Example 33, N-[3′-Fluoro-4′-((3S)-3-methyl-1,1-dioxo-6-phenyl-[1,2]thiazinan-2-ylmethyl)-biphenyl-4-yl]-methanesulfonamide] | 44
C[C@H]1CCC(c2ccccc2)S(=O)(=O)N1Cc1ccc(-c2ccncc2)cc1F (stereo partly drawn) [Example 34, (3S)-2-(2-Fluoro-4-pyridin-4-yl-benzyl)-3-methyl-6-phenyl-[1,2]thiazinane 1,1-dioxide] | 463
Cc1noc(C)c1-c1ccc(CN2[C@@H](C)CCC(c3ccccc3)S2(=O)=O)c(F)c1 (stereo partly drawn) [Example 35, (3S)-2-[4-(3,5-Dimethyl-isoxazol-4-yl)-2-fluoro-benzyl]-3-methyl-6-phenyl-[1,2]thiazinane 1,1-dioxide] | 534
CNC(=O)c1ccc(-c2ccc(CN3[C@@H](C)CCC(c4ccccc4)S3(=O)=O)c(F)c2)cn1 (stereo partly drawn) [Example 36, 5-[3-Fluoro-4-((3S)-3-methyl-1,1-dioxo-6-phenyl-[1,2]thiazinan-2-ylmethyl)-phenyl]-pyridine-2-carboxylic acid methylamide] | 1600
C[C@H]1CCC(c2ccccc2)S(=O)(=O)N1Cc1ccc(-c2ccc(S(C)(=O)=O)cn2)cc1F (stereo partly drawn) [Example 38, (3S)-2-[2-Fluoro-4-(5-methanesulfonyl-pyridin-2-yl)-benzyl]-3-methyl-6-phenyl-[1,2]thiazinane 1,1-dioxide] | 87
C[C@H]1CCC(c2ccccc2)S(=O)(=O)N1Cc1ccc(-c2ccc(S(C)(=O)=O)nc2)cc1F (stereo partly drawn) [Example 39, (3S)-2-[2-Fluoro-4-(6-methanesulfonyl-pyridin-3-yl)-benzyl]-3-methyl-6-phenyl-[1,2]thiazinanc 1,1-dioxide] | 151
C[C@H]1CCC(c2ccccc2)S(=O)(=O)N1Cc1ccc(-c2cnc(S(C)(=O)=O)nc2)cc1F (stereo partly drawn) [Example 40, (3S)-2-[2-Fluoro-4-(2-mcthanesulfonyl-pyrimidin-5-yl)-benzyl]-3-methyl-6-phenyl-[1,2]thiazinane 1,1-dioxide] | 989
Cc1cccnc1COc1ccc(CN2[C@@H](C)CCC(c3ccccc3)S2(=O)=O)cc1 (stereo partly drawn) [Example 46, (3S)-3-Methyl-2-[4-(3-methyl-pyridin-2-ylmethoxy)-benzyl]-6-phenyl-[1,2]thiazinane 1,1-dioxide] | 153

Now from value to molecule:

IC50 [nM] | Structure (SMILES)
205 | Cc1cnccc1COc1ccc(CN2[C@@H](C)CCC(c3ccccc3)S2(=O)=O)cc1 (stereo partly drawn) [Example 47, (3S)-3-Methyl-2-[4-(3-methyl-pyridin-4-ylmethoxy)-benzyl]-6-phenyl-[1,2]thiazinane 1,1-dioxide]
1630 | C[C@H]1CCC(c2ccccc2)S(=O)(=O)N1Cc1ccc(OCc2ncccn2)cc1 (stereo partly drawn) [Example 48, (3S)-3-Methyl-6-phenyl-2-[4-(pyrimidin-2-ylmethoxy)-benzyl]-[1,2]thiazinane 1,1-dioxide]
295 | C[C@H]1CCC(c2ccccc2)S(=O)(=O)N1Cc1ccc(OCc2cncn2C)cc1 (stereo partly drawn) [Example 49, (3S)-3-Methyl-2-[4-(3-methyl-3H-imidazol-4-ylmethoxy)-benzyl]-6-phenyl-[1,2]thiazinane 1,1-dioxide]
1180 | Cc1cnc(COc2ccc(CN3[C@@H](C)CCC(c4ccccc4)S3(=O)=O)cc2)nc1 (stereo partly drawn) [Example 51, (3S)-3-Methyl-2-[4-(5-methyl-pyrimidin-2-ylmethoxy)-benzyl]-6-phenyl-[1,2]thiazinane 1,1-dioxide]
57 | Cc1ncccc1COc1ccc(CN2[C@@H](C)CCC(c3ccccc3)S2(=O)=O)cc1 (stereo partly drawn) [Example 52, (3S)-3-Methyl-2-[4-(2-methyl-pyridin-3-ylmethoxy)-benzyl)-6-phenyl-[1,2]thiazinane 1,1-dioxide]
208 | Cc1oncc1COc1ccc(CN2[C@@H](C)CCC(c3ccccc3)S2(=O)=O)cc1 (stereo partly drawn) [Example 53, (3S)-3-Methyl-2-[4-(5-methyl-isoxazol-4-ylmethoxy)-benzyl]-6-phenyl-[1,2]thiazinane 1,1-dioxide]
295 | Cc1cc(COc2ccc(CN3[C@@H](C)CCC(c4ccccc4)S3(=O)=O)cc2)cc(C)n1 (stereo partly drawn) [Example 54, (3S)-2-[4-(2,6-Dimethyl-pyridin-4-ylmethoxy)-benzyl]-3-methyl-6-phenyl-[1,2]thiazinane 1,1-dioxide]
387 | Cc1cc(COc2ccc(CN3[C@@H](C)CCC(c4ccccc4)S3(=O)=O)cc2)n(C)n1 (stereo partly drawn) [Example 55, (3S)-2-[4-(2,5-Dimethyl-2H-pyrazol-3-ylmethoxy)-benzyl]-3-methyl-6-phenyl-[1,2]thiazinane 1,1-dioxide]
316 | C[C@H]1CCC(c2ccccc2)S(=O)(=O)N1Cc1ccc(OCCn2ccnc2)cc1 (stereo partly drawn) [Example 56, (3S)-2-[4-(2-Imidazol-1-yl-ethoxy)-benzyl]-3-methyl-6-phenyl-[1,2]thiazinane 1,1-dioxide]
